According to US5244898A, “Benzoheterocyclic compounds” (Otsuka Pharmaceutical Co., Ltd., priority 1991, dated 1993):
Counter-ions that a name gives are not always drawn.

Legend:
V1 Receptor = V1 Receptor (Rattus norvegicus, UniProt P30560); test: V1 Receptor Binding Assay ([3H]-Arg-vasopressin, rat liver plasma membrane); settings: 37° C., 10 minutes, pH 8.0
Protocol: After incubation, the mixture is filtered three times using the glass filter (GF/F) so as to separate the membrane preparation combining with vasopressin and then washed with the buffer (5 ml). This glass filter is taken out and mixed with liquid scintillation cocktail. The amount of [^3 H]-vasopressin combining with the membrane is measured by liquid scintillation counter and the rate of the inhibitory effect of the test compound is estimated according to the following equation.
(§1) C1 : The amount of [^3 H]-vasopressin combining with the membrane in the presence of the test compound of a known amount.
(§2) C0 : The amount of [^3 H]-vasopressin combining with the membrane in the absence of the test compound.
B1 : The amount of [^3 H]-vasopressin combining with the membrane in the presence of the excess amount of vasopressin (10^-6 M).
(§3) The results are expressed as IC50 value, which is the concentration of the test compound required to achieve the inhibitory effect in the rate of 50%.

V2 Receptor = target: T1, V2 Receptor (Rattus norvegicus, UniProt Q00788); test: V2 Receptor Binding Assay ([3H]-Arg-vasopressin, rat kidney plasma membrane); settings: 4° C., pH 8.0
T1 construct: rat kidney plasma membrane preparations; from tissue; host or cells: rat kidney plasma membranes
T1 sequence (Q00788 whole entry): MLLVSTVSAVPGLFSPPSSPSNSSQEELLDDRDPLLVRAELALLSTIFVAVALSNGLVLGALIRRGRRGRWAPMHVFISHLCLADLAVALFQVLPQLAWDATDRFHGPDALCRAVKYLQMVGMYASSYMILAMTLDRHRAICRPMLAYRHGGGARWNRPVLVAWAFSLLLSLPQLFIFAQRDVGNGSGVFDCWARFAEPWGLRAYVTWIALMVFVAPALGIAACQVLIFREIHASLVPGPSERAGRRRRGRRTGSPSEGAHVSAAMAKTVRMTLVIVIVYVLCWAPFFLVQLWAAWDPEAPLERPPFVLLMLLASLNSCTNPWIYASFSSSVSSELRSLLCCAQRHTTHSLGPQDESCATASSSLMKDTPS
Protocol: Chem., 253, 3211 (1978)], the plasma membrane (100000 dpm, 4×10^-10M) of [^3 H]-Arg-vasopressin and a test compound (0.6 mg, 10^-10 -10^-5 M) are incubated at 4° C. for 3 hours in 100 mM Tris-HCl buffer pH: 8.0 (250 μl ) containing 5 mM MgCl2, 1 mM EDTA and 0.1 % BSA. After incubation, the mixture is filtered using the glass filter (GF/F) so as to separate the membrane preparation combining with vasopressin and then washed twice with the buffer (5 ml). This glass filter is taken out and mixed with liquid scintillation cocktail. The amount of [^3 H]-vasopressin combining with the membrane is measured by liquid scintillation counter and the rate of the inhibitory effect of the test compound is estimated according to the following equation. [formula]
as §1, §2
B1 : The amount of [3H-vasopressin combining with the membrane in the presence of the excess amount of vasopressin (10^-6 M).
as §3

V1 Receptor, sequence (P30560 whole entry): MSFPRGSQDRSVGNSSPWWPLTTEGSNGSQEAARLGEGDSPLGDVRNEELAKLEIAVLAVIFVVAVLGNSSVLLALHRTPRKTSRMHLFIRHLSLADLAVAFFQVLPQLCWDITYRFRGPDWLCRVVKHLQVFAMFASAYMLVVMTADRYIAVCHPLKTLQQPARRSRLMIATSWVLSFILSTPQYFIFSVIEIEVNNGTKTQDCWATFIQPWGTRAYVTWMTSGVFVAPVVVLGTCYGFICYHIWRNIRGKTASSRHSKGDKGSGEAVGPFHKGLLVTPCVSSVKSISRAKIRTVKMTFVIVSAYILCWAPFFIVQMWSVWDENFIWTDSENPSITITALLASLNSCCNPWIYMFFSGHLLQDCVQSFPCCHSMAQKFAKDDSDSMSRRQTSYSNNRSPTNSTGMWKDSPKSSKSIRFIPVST

SMILES | IC50 (V1 Receptor) [nM] | IC50 (V2 Receptor) [nM]
COc1cc(NC(=O)c2ccccc2C)ccc1C(=O)N1CCCC(OC(=O)[C@@H](N)CCSC)c2cc(Cl)ccc21 (single isomer, unassigned) [Test Compound 13, 5-(L-Methionyloxy)-7-chloro-1-[2-methoxy-4-(2-methylbenzoylamino)benzoyl]-2,3,4,5-tetrahydro-1H-benzazepine hydrochloride] | 20 | 6
CSCC[C@H](N)C(=O)OC1CCCN(C(=O)c2ccc(NC(=O)c3ccccc3C)cc2C)c2ccc(Cl)cc21 (single isomer, unassigned) [Test Compound 14, 5-(L-Methionyloxy)-7-chloro-1-[2-methyl-4-(2-methylbenzoylamino)benzoyl]-2,3,4,5-tetrahydro-1H-benzazepine hydrochloride] | 220 | 11
Cc1ccccc1C(=O)Nc1ccc(C(=O)N2CCCC(OC(=O)[C@@H](N)C(C)C)c3cc(Cl)ccc32)c(C)c1 (single isomer, unassigned) [Test Compound 15, 5-(L-Valyloxy)-7-chloro-1-[2-methyl-4-(2-methylbenzoylamino)benzoyl]-2,3,4,5-tetrahydro-1H-benzazepine hydrochloride] | 180 | 14
CN(C)C1CCCN(C(=O)c2ccc(NC(=O)Cc3c(Cl)cccc3Cl)cc2)c2ccccc21 (stereo not drawn) [Test Compound 6, 5-Dimethylamino-1-{4-[2-(2,6-dichlorophenyl)acetylamino]benzoyl}-2,3,4,5-tetrahydro-1H-benzazepine] | 120 | 24
Cc1ccccc1CC(=O)Nc1ccc(C(=O)N2CCCC(O)c3cc(Cl)ccc32)c(C)c1 (stereo not drawn) [Test Compound 16, 5-Hydroxy-7-chloro-1-{2-methyl-4-[2-(2-methylphenyl)acetylamino]benzoyl}-2,3,4,5-tetrahydro-1H-benzazepine] | 320 | 4
COc1cc(NC(=O)c2ccccc2C)ccc1C(=O)N1CCCC(OC(=O)CN2CCOCC2)c2cc(Cl)ccc21 (stereo not drawn) [Test Compound 17, 5-(2-Morpholinoacetyloxy)-7-chloro-1-[2-methoxy-4-(2-methylbenzoylamino)benzoyl]-2,3,4,5-tetrahydro-1H-benzazepine hydrochloride] | 21 | 12
COc1cc(NC(=O)Cc2ccccc2C)ccc1C(=O)N1CCCC(O)c2cc(Cl)ccc21 (stereo not drawn) [Test Compound 18, 5-Hydroxy-7-chloro-1-{2-methoxy-4-[2-(2-methylphenyl)acetylamino]benzoyl}-2,3,4,5-tetrahydro-1H-benzazepine] | 55 | 4
COCC(=O)OC1CCCN(C(=O)c2ccc(NC(=O)c3ccccc3C)cc2)c2ccc(Cl)cc21 (stereo not drawn) [Test Compound 24, 5-(2-Methoxyacetyloxy)-7-chloro-1-[4-(2-methylbenzoylamino)benzoyl]-2,3,4,5-tetrahydro-1H-benzazepine] | 18 | 7
Cc1ccccc1C(=O)Nc1ccc(C(=O)N2CCCC(COC(=O)CN(C)C)c3cc(Cl)ccc32)cc1 (stereo not drawn) [Test Compound 25, 5-[2-(Dimethylaminoacetyloxy)methyl]-7-chloro-1-[4-(2-methylbenzoylamino)benzoyl]-2,3,4,5-tetrahydro-1H-benzazepine hydrochloride] | 21 | 4
CCOC(=O)CC1CCCN(C(=O)c2ccc(NC(=O)c3ccccc3C)cc2OC)c2ccc(Cl)cc21 (stereo not drawn) [Test Compound 26, 5-Ethoxycarbonylmethyl-7-chloro-1-[2-methoxy-4-(2-methylbenzoylamino)benzoyl]-2,3,4,5-tetrahydro-1H-benzazepine] | 77 | 9
COc1cc(C(=O)N2CCCC(CC(=O)N3CCN(C)CC3)c3cc(Cl)ccc32)ccc1NC(=O)c1ccccc1C (stereo not drawn) [Test Compound 27, 5-[(4-Methyl-1-piperazinyl)carbonylmethyl]-7-chloro-1-[3-methoxy-4-(2-methylbenzoylamino)benzoyl]-2,3,4,5-tetrahydro-1H-benzazepine] | 34 | 7
CCOc1cc(NC(=O)c2ccccc2Cl)ccc1C(=O)N1CCCC(CC(N)=O)c2cc(Cl)ccc21 (stereo not drawn) [Test Compound 28, 5-Carbamoylmethyl-7-chloro-1-[2-ethoxy-4-(2-chlorobenzoylamino)benzoyl]-2,3,4,5-tetrahydro-1H-benzazepine] | 30 | 2
COc1cc(NC(=O)c2ccccc2C)ccc1C(=O)N1CCCC(OC(=O)[C@@H](N)CCCCN)c2cc(Cl)ccc21 (stereo partly drawn) [Test Compound 29, 5-(L-Lysyloxy)-7-chloro-1-[2-methoxy-4-(2-methylbenzoylamino)benzoyl]-2,3,4,5-tetrahydro-1H-benzazepine dihydrochloride] | 40 | 6
COc1cc(C(=O)N2CCCC(CC(=O)NC3CCNCC3)c3cc(Cl)ccc32)ccc1NC(=O)c1ccccc1C (stereo not drawn) [Test Compound 30, 5-[(4-Piperidinyl)aminocarbonylmethyl]-7-chloro-1-[3-methoxy-4-(2-methylbenzoylamino)benzoyl]-2,3,4,5-tetrahydro-1H-benzazepine hydrochloride] | 31 | 9
COc1cc(C(=O)N2CCCC(CC(=O)N(C)C)c3cc(Cl)ccc32)ccc1NC(=O)c1ccccc1C (stereo not drawn) [Test Compound 32, 5-Dimethylaminocarbonylmethyl-7-chloro-1-[3-methoxy-4-(2-methylbenzoylamino)benzoyl]-2,3,4,5-tetrahydro-1H-benzazepine] | 11 | 4
Cc1ccccc1C(=O)Nc1ccc(C(=O)N2CCCC(=CCCN(C)C)c3cc(F)ccc32)c(Cl)c1 [Test Compound 33, 5-(3-Dimethylaminopropylidene)-7-fluoro-1-[2-chloro-4-(2-methylbenzoylamino)benzoyl]-2,3,4,5-tetrahydro-1H-benzazepine hydrochloride] | 84 | 2
COc1cc(NC(=O)c2ccccc2C)ccc1C(=O)N1CCCC(OCCN2CCCC2)c2cc(Cl)ccc21 (stereo not drawn) [Test Compound 34, 5-[2-(1-Pyrrolidinyl)ethoxy]-7-chloro-1-[2-methoxy-4-(2-methylbenzoylamino)benzoyl]-2,3,4,5-tetrahydro-1H-benzazepine hydrochloride] | 9 | 6
COc1cc(NC(=O)c2ccccc2C)ccc1C(=O)N1CCCC(OCCCOS(=O)(=O)c2ccc(C)cc2)c2cc(Cl)ccc21 (stereo not drawn) [Test Compound 37, 5-[3-(p-Toluenesulfonyloxy)propoxy]-7-chloro-1-[2-methoxy-4-(2-methylbenzoylamino)benzoyl]-2,3,4,5-tetrahydro-1H-benzazepine] | 210 | 5.4
Cc1ccccc1C(=O)Nc1ccc(C(=O)N2CCCC(C#N)c3cc(Cl)ccc32)cc1Cl (stereo not drawn) [Test Compound 38, 5-Cyano-7-chloro-1-[3-chloro-4-(2-methylbenzoylamino)benzoyl]-2,3,4,5-tetrahydro-1H-benzazepine] | 160 | 150
COc1cc(C(=O)N2CCCCc3cc(Cl)ccc32)ccc1NC(=O)c1ccccc1OCCCCN1CCN(C(C)=O)CC1 [Test Compound 56, 7-Chloro-1-[3-methoxy-4-{2-[4-(4-acetyl-1-piperazinyl)butoxy]benzoylamino}benzoyl]-2,3,4,5-tetrahydro-1H-benzazepine] | 7 | 
